Assay results as given in ChEMBL document CHEMBL4602679, “Polyesterified Sesquiterpenoids from the Seeds of Celastrus paniculatus as Lifespan-Extending Agents for the Nematode Caenorhabditis elegans” (2020).

Key:
Caenorhabditis elegans [1] = test: Induction of lifespan expansion in late L4 larval stage of Caenorhabditis elegans Bristol N2 assessed as survival time at 50 uM (reference value: 15.19 =/- 0.53 day); format: functional
Caenorhabditis elegans [2] = test: Induction of lifespan expansion in late L4 larval stage of Caenorhabditis elegans Bristol N2 assessed as increase in survival time at 50 uM relative to control; format: functional

What does the source list for `CC(=O)OC[C@@]12[C@@H](OC(C)=O)CC[C@](C)(O)[C@]13OC(C)(C)[C@H]([C@H](OC(C)=O)[C@H]2OC(=O)c1ccoc1)[C@H]3OC(C)=O`?
Survival (Caenorhabditis elegans [1]): 17.56 days; survival at 50 µM (Caenorhabditis elegans [2]): 16%

With `CC(=O)O[C@H]1CC[C@](C)(O)[C@]23OC(C)(C)[C@H]([C@H](OC(=O)c4ccoc4)[C@H](OC(=O)c4ccoc4)[C@]12CO)[C@H]3OC(C)=O` as the compound, how does the Survival (Caenorhabditis elegans [1]) read?
The Survival was 18 days.

What about the survival at 50 µM (Caenorhabditis elegans [2]) of the same compound?
Its survival at 50 µM is 18%.

For `CC(=O)OC[C@@]12[C@@H](OC(C)=O)CC[C@@H](C)[C@]13OC(C)(C)[C@H]([C@@H](OC(C)=O)[C@@H]2OC(=O)c1ccoc1)[C@H]3OC(C)=O`, which Survival (Caenorhabditis elegans [1]) is on record?
Its Survival is 16.83 days.

What about the survival at 50 µM (Caenorhabditis elegans [2]) of the same compound?
The survival at 50 µM was 11%.

What does the source list for `CC(=O)OC[C@@]12[C@@H](OC(C)=O)CC[C@](C)(O)[C@]13OC(C)(C)[C@H]([C@H](OC(=O)c1ccoc1)[C@@H]2OC(=O)c1ccoc1)[C@H]3OC(C)=O`?
Survival (Caenorhabditis elegans [1]): 17.39 days; survival at 50 µM (Caenorhabditis elegans [2]): 14%

Which Survival (Caenorhabditis elegans [1]) does the source give for `CC(=O)OC[C@@]12[C@@H](OC(C)=O)CC[C@@H](C)[C@@]13C[C@@H]([C@H](OC(C)=O)[C@H]2OC(=O)c1ccoc1)C(C)(C)O3` here?
Its Survival is 17 days.

And the survival at 50 µM (Caenorhabditis elegans [2])?
The survival at 50 µM was 12%.

How did the Survival (Caenorhabditis elegans [1]) turn out when `CC(=O)OC[C@]12[C@@H](OC(=O)c3ccoc3)[C@@H](OC(C)=O)[C@@H]3C[C@]1(OC3(C)C)[C@H](C)C[C@@H](OC(C)=O)[C@@H]2OC(C)=O` was run?
Its Survival is 15.46 days.

`CC(=O)OC[C@@]12[C@@H](OC(C)=O)CC[C@@H](C)[C@@]13C[C@@H]([C@H](OC(C)=O)[C@@H]2OC(=O)c1ccoc1)C(C)(C)O3` was tested. Which Survival (Caenorhabditis elegans [1]) did it give?
The Survival was 16.38 days.

`CC(=O)OC[C@@]12[C@@H](OC(C)=O)CC[C@](C)(O)[C@]13OC(C)(C)[C@H]([C@@H](OC(C)=O)[C@@H]2OC(=O)c1ccoc1)[C@H]3OC(C)=O` was tested. Which Survival (Caenorhabditis elegans [1]) did it give?
Its Survival is 15.29 days.

Which results are given for `CC(=O)OC[C@@]12[C@@H](OC(C)=O)CC[C@](C)(O)[C@]13OC(C)(C)[C@H]([C@H](OC(C)=O)[C@@H]2OC(=O)c1ccoc1)[C@H]3OC(C)=O`?
Survival (Caenorhabditis elegans [1]): 17.67 days; survival at 50 µM (Caenorhabditis elegans [2]): 16%

Which results are given for `CC(=O)OC[C@@]12[C@@H](OC(C)=O)CC[C@@H](C)[C@]13OC(C)(C)[C@H]([C@H](OC(C)=O)[C@H]2OC(=O)c1ccccc1)[C@H]3OC(C)=O`?
Survival (Caenorhabditis elegans [1]): 17.77 days; survival at 50 µM (Caenorhabditis elegans [2]): 17%
